The subject of data set [1] is several X. fastidiosa strains. The following applies: 12.5 μM; cited from earlier work.
Data set [2] has as its system X. fastidiosa subsp. fastidiosa IVIA 5387.2. In kind it is cell-based, Xylella fastidiosa.
Data set [3] has the same test system.
Data set [4] has the same test system. The following applies: for Bimax (maximum biofilm inhibition): 50 µM.
Data set [5] deals with Gram-negative bacteria. The following applies: cited from earlier work.
Data set [6] has as its system Gram-negative bacteria. The following applies: cited from earlier work. This is another data set of the same source.
Data set [7] concerns X. fastidiosa subsp. fastidiosa IVIA 5387.2. In kind it is cell-based, Xylella fastidiosa. The source holds these as a separate data set.

Read-outs that look alike come from different tables or passages of the source. Square brackets hold non-standard residues; d marks the D form. Peptide text beside a SMILES is read from it. * marks the point of attachment. Hexanoyl = CCCCCC(=O)*

On to BP178, for which, in data set [1], the reduction in viability result is “approximately 3.6 log”.

For the compound `CC[C@H](C)[C@H](NC(=O)[C@H](CCCCN)NC(=O)[C@H](CCCCN)NC(=O)[C@H](CC(C)C)NC(=O)[C@@H](NC(=O)[C@H](CCCNC(=N)N)NC(=O)[C@@H](NC(=O)[C@H](CCCNC(=N)N)NC(=O)[C@@H](NC(=O)[C@H](CCCNC(=N)N)NC(=O)[C@H](Cc1ccccc1)NC(=O)[C@H](CC(C)C)NC(=O)[C@H](CCCNC(=N)N)NC(=O)[C@H](CCCNC(=N)N)NC(=O)[C@H](Cc1ccccc1)NC(=O)[C@@H](N)CCCNC(=N)N)[C@@H](C)CC)C(C)C)C(C)C)C(N)=O` [R-FV7-I16] (H-RFRRLFRIRVRVLKKI-NH2; N-terminus assumed), in data set [2] (50 µM), the “Biofilm formation Level (antibiofilm activity)” value (from here on “Biofilm formation Level”) is given as “High (key: High: high antibiofilm activity (ratio of biofilm formation from 0.01 to 0.2); Moderate: moderate activity (ratio from 0.29 to 0.47); Low: low activity (ratio from 0.72 to 0.77))”, the “Biofilm formation Ratio (treatment/NTC)” value is 0.10 ± 0.01 and the “Planktonic cells Ratio (treatment/NTC)” value is reported as 1.70 ± 0.12. Also, the “Bactericidal activity: Reduction in viability (Log N0/N)” value in data set [3] (50 µM) came out at 0.39 ± 0.01 Log N0/N. Besides, in data set [4], the “ED50 (median effective dose, biofilm inhibition)” value was 6.3 ± 3.7 µM and the “Bimax (maximum biofilm inhibition)” value stood at 90.6%. In the data set on horse erythrocytes (150 µM), this compound had a Hemolysis of 6.3 ± 0.3%. In addition, in the data set on horse erythrocytes (250 µM), the Hemolysis was 8.0 ± 1.3%. Also, in the data set on horse erythrocytes (375 µM), the Hemolysis is listed as 9.7 ± 0.6%. Further, the “Described activity: Antibacterial” value in the data set on Gram-negative bacteria [5] was “Ec, Pa, Se”. In addition, in the data set with Gram-negative bacteria [6], the “Described activity: Antibiofilm” value is given as “Ec, Pa”.

Take `CC[C@H](C)[C@H](NC(=O)[C@H](CCCNC(=N)N)NC(=O)[C@H](Cc1ccccc1)NC(=O)[C@H](CCCNC(=N)N)NC(=O)[C@@H](N)CCCCN)C(=O)N[C@@H](CCCNC(=N)N)C(=O)N[C@H](C(=O)N[C@@H](CCCNC(=N)N)C(=O)N[C@H](C(N)=O)C(C)C)C(C)C` [Peptide 1037] (H-KRFRIRVRV-NH2): in data set [2], the “Biofilm formation Level” value is listed as “High (key: High: high antibiofilm activity (ratio of biofilm formation from 0.01 to 0.2); Moderate: moderate activity (ratio from 0.29 to 0.47); Low: low activity (ratio from 0.72 to 0.77))”, the “Biofilm formation Ratio (treatment/NTC)” value was determined as 0.15 ± 0.00 and the “Planktonic cells Ratio (treatment/NTC)” value is on record as 1.67 ± 0.05. Further, the “Bactericidal activity: Reduction in viability (Log N0/N)” value in data set [3] amounted to 0.84 ± 0.09 Log N0/N. Moreover, in data set [4], the “ED50 (median effective dose, biofilm inhibition)” value was 4.2 ± 2.4 µM.

In the case of `CC[C@H](C)[C@H](NC(=O)[C@H](CCCNC(=N)N)NC(=O)[C@H](Cc1c[nH]c2ccccc12)NC(=O)[C@H](CCC(N)=O)NC(=O)[C@@H](N)C(C)C)C(=O)N[C@@H](CCCNC(=N)N)C(=O)N[C@H](C(=O)N[C@@H](CCCNC(=N)N)C(=O)N[C@H](C(=O)N[C@H](C(=O)N[C@@H](CCCCN)C(=O)N[C@@H](CCCCN)C(N)=O)[C@@H](C)CC)C(C)C)C(C)C` [Peptide 1026] (H-VQWRIRVRVIKK-NH2), in data set [2], the “Biofilm formation Level” value is “High (key: High: high antibiofilm activity (ratio of biofilm formation from 0.01 to 0.2); Moderate: moderate activity (ratio from 0.29 to 0.47); Low: low activity (ratio from 0.72 to 0.77))” and the “Planktonic cells Ratio (treatment/NTC)” value stood at 2.10 ± 0.05. Moreover, in data set [7], the attached biofilm cells turned out to be 0.7%, the biofilm detached cells is 19.8% and the planktonic cells was determined as 79.5%. For the same compound, the “Bactericidal activity: Reduction in viability (Log N0/N)” value in data set [3] is on record as 1.03 ± 0.07 Log N0/N.

Take `CC[C@H](C)[C@H](N)C(=O)N[C@@H](CC(C)C)C(=O)N1CCC[C@H]1C(=O)N[C@H](Cc1ccccc1)C(=O)N[C@@H](CCCCN)C(=O)N[C@H](Cc1ccccc1)C(=O)N1CCC[C@H]1C(=O)N[C@H](Cc1ccccc1)C(=O)N[C@H](Cc1ccccc1)C(=O)N1CCC[C@H]1C(=O)N[C@H](Cc1ccccc1)C(=O)N[C@@H](CCCNC(=N)N)C(=O)N[C@@H](CCCNC(=N)N)C(N)=O` [BP525] (H-ILP[dF]K[dF]P[dF][dF]P[dF]RR-NH2): in data set [2], the “Biofilm formation Level” value is on record as “High (key: High: high antibiofilm activity (ratio of biofilm formation from 0.01 to 0.2); Moderate: moderate activity (ratio from 0.29 to 0.47); Low: low activity (ratio from 0.72 to 0.77))”, the “Biofilm formation Ratio (treatment/NTC)” value came to 0.18 ± 0.01 and the “Planktonic cells Ratio (treatment/NTC)” value worked out at 1.83 ± 0.12. For the same compound, the “Bactericidal activity: Reduction in viability (Log N0/N)” value in data set [3] is 0.74 ± 0.06 Log N0/N. In data set [4], the “ED50 (median effective dose, biofilm inhibition)” value is 4.4 ± 1.3 µM and the “Bimax (maximum biofilm inhibition)” value stood at 85.8%.

For the compound `CCCCCC(=O)N[C@H](C(=O)N[C@@H](CC(C)C)C(=O)N1CCC[C@H]1C(=O)N[C@H](Cc1ccccc1)C(=O)N[C@@H](CCCCN)C(=O)N[C@H](Cc1ccccc1)C(=O)N1CCC[C@H]1C(=O)N[C@H](Cc1ccccc1)C(=O)N[C@H](Cc1ccccc1)C(=O)N1CCC[C@H]1C(=O)N[C@H](Cc1ccccc1)C(=O)N[C@@H](CCCNC(=N)N)C(=O)N[C@@H](CCCNC(=N)N)C(N)=O)[C@@H](C)CC` [BP527] (Hexanoyl-ILP[dF]K[dF]P[dF][dF]P[dF]RR-NH2), in data set [2] (50 µM), the “Biofilm formation Level” value is “High (key: High: high antibiofilm activity (ratio of biofilm formation from 0.01 to 0.2); Moderate: moderate activity (ratio from 0.29 to 0.47); Low: low activity (ratio from 0.72 to 0.77))”, the “Biofilm formation Ratio (treatment/NTC)” value was found to be 0.18 ± 0.02 and the “Planktonic cells Ratio (treatment/NTC)” value came to 0.58 ± 0.12. For the same compound, in data set [7], the attached biofilm cells is listed as 12.5%, the biofilm detached cells is recorded as 45.7% and the planktonic cells is listed as 41.7%. Besides, the “Bactericidal activity: Reduction in viability (Log N0/N)” value in data set [3] (50 µM) stood at 0.49 ± 0.04 Log N0/N. Moreover, the Hemolysis with horse erythrocytes (150 µM) was 62.2 ± 4.4%. Further, in the data set on horse erythrocytes (250 µM), the Hemolysis is 73.6 ± 1.1%. In the data set with horse erythrocytes (375 µM), this compound had a Hemolysis of 100.0 ± 2.6%.

Regarding `CC[C@H](C)[C@H](NC(=O)[C@H](CCCNC(=N)N)NC(=O)[C@H](Cc1ccccc1)NC(=O)[C@H](CCCNC(=N)N)NC(=O)[C@@H](N)CCCCN)C(=O)N[C@@H](CCCNC(=N)N)C(=O)N[C@H](C(=O)N[C@@H](CCCNC(=N)N)C(=O)N[C@H](C(=O)N[C@H](C(=O)N[C@@H](CCCNC(=N)N)C(=O)N[C@@H](CCCCN)C(N)=O)[C@@H](C)CC)C(C)C)C(C)C` [HH15] (H-KRFRIRVRVIRK-NH2), in data set [2], the “Biofilm formation Level” value was “High (key: High: high antibiofilm activity (ratio of biofilm formation from 0.01 to 0.2); Moderate: moderate activity (ratio from 0.29 to 0.47); Low: low activity (ratio from 0.72 to 0.77))”. The “Biofilm formation Ratio (treatment/NTC)” value in data set [2] is listed as 0.14 ± 0.01. Also, the “Planktonic cells Ratio (treatment/NTC)” value in data set [2] is reported as 2.50 ± 0.05. Further, the “Bactericidal activity: Reduction in viability (Log N0/N)” value in data set [3] is listed as 0.21 ± 0.02 Log N0/N. Also, the Hemolysis in the data set with horse erythrocytes (150 µM) is 2.3 ± 0.3%; with horse erythrocytes (250 µM) it was 4.5 ± 1.9%; in the data set on horse erythrocytes (375 µM), 4.0 ± 0.4%. Further, the “Described activity: Antibacterial” value with Gram-negative bacteria [5] is “Pa, Bc”. Also, the “Described activity: Antibiofilm” value with Gram-negative bacteria [6] was “Pa, Bc”.

Turning to `CC[C@H](C)[C@H](NC(=O)[C@H](CCCNC(=N)N)NC(=O)[C@H](CCCNC(=N)N)NC(=O)[C@H](CC(C)C)NC(=O)[C@H](Cc1c[nH]c2ccccc12)NC(=O)[C@H](C)NC(=O)[C@H](CCCCN)NC(=O)[C@@H](NC(=O)[C@H](CCCNC(=N)N)NC(=O)[C@H](CCCNC(=N)N)NC(=O)[C@H](CC(C)C)NC(=O)[C@@H](N)Cc1c[nH]c2ccccc12)[C@@H](C)CC)C(=O)N[C@@H](CCCCN)C(=O)N[C@@H](C)C(=O)O` [RR4-OH], the “Biofilm formation Level” value in data set [2] (50 µM) was “High (key: High: high antibiofilm activity (ratio of biofilm formation from 0.01 to 0.2); Moderate: moderate activity (ratio from 0.29 to 0.47); Low: low activity (ratio from 0.72 to 0.77))”. Moreover, the “Biofilm formation Ratio (treatment/NTC)” value in data set [2] (50 µM) was 0.09 ± 0.01. Further, the “Planktonic cells Ratio (treatment/NTC)” value in data set [2] (50 µM) is listed as 1.87 ± 0.10. The “Bactericidal activity: Reduction in viability (Log N0/N)” value in data set [3] (50 µM) is 1.94 ± 0.03 Log N0/N. Also, the Hemolysis in the data set on horse erythrocytes (150 µM) was 3.2 ± 1.0%; in the data set on horse erythrocytes (250 µM), 9.8 ± 3.7%; in the data set on horse erythrocytes (375 µM), 17.8 ± 0.3%. In addition, the “Described activity: Antibacterial” value in the data set on Gram-negative bacteria [5] is on record as “Pa, Ab”. Also, the “Described activity: Antibiofilm” value with Gram-negative bacteria [6] is reported as “Pa, Ab”.

The values above are taken from paper PMC8606745 (Frontiers in Microbiology, 2021).
